Assay results published in patent US8765779B2, “Tricyclic derivatives and their pharmaceutical use and compositions” (Cephalon, Inc., priority 2009, dated 2014).
Structures can show the parent of a compound that is named as a salt.

The compounds below were run against T1, human 5-HT6 receptor (Homo sapiens, UniProt P50406) (assay: Human 5-HT6 Receptor Binding Assay ([3H]LSD displacement, scintillation beads)). Settings: membranes of CHO-K1 cells with recombinant human 5-HT6, 4 nM [3H]LSD; Table 1, class symbols; read-out: h5-HT6 (Ki).
T1 construct: host or cells: CHO-K1 cells, stably transfected; membranes prepared in house
T1 sequence (P50406 whole entry): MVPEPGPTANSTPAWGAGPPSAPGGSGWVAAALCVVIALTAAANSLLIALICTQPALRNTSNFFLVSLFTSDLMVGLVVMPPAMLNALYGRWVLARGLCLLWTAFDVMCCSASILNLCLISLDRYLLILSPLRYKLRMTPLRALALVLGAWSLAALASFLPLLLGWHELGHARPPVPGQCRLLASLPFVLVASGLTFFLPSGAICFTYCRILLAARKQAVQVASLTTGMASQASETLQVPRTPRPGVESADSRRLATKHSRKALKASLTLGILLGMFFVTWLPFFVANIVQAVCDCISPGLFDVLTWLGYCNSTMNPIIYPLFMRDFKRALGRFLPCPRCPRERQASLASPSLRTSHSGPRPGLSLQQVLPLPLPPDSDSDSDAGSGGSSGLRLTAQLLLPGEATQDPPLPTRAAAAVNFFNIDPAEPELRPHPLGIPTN

Compound | Ki
O=S(=O)(c1cccc(Cl)c1)c1ccc2c3c(oc2c1)C(C1CC1)NCC3 (centres unmarked) [Example 503] | < 500 nM
CC(C)Oc1cccc(S(=O)(=O)c2ccc3c(c2)OC2CNCCC32C)c1 (racemic) [Example 12, 4a-methyl-7-{[3-(propan-2-yloxy)phenyl]sulfonyl}-1,2,3,4,4a,9a-hexahydro[1]benzofuro[2,3-c]pyridine] | < 500 nM
O=S(=O)(Nc1ccc2c(c1)C1CCNCC1O2)c1cc2ccccc2s1 (centres unmarked) [Example 834] | < 500 nM
CC1(C)CNCc2oc3cc(S(=O)(=O)c4cncc(Cl)c4)ccc3c21 [Example 452] | < 500 nM
O=S(=O)(c1cccc(C(F)(F)F)c1)c1ccc2c(c1)OC1CNCCC21 (centres unmarked) [Example 167] | < 500 nM
1,2,3,4,4a,9a-hexahydro[1]benzofuro[2,3-c]pyridin-7-yl naphthalene-2-sulfonate [Example 660] | < 500 nM
O=S(=O)(c1ccc2c3c(oc2c1)CNCC3)c1c(F)c(F)cc(F)c1F [Example 225] | < 500 nM
O=S(=O)(Oc1ccc2c(c1)C1CCNCC1O2)c1ccc(-n2cccn2)cc1 (centres unmarked) [Example 733] | 500 to 1000 nM
COC(=O)c1cc(Cl)cc(S(=O)(=O)c2ccc3c(c2)OC2CNCCC32)c1 (centres unmarked) [Example 387] | > 1000 nM
COc1ccc(S(=O)(=O)c2ccc3oc4c(c3c2)CCNC4)cc1F [Example 241] | < 500 nM
O=S(=O)(c1ccc2c(c1)OC1CNCCC21)c1cccc2ccccc12 (centres unmarked) [Example 114] | < 500 nM
O=S(=O)(Oc1ccc2c(c1)OC1CNCCC21)c1c(Cl)nc2sccn12 (centres unmarked) [Example 793] | < 500 nM
O=S(=O)(c1cccc(Cl)c1)c1ccc2c(c1)C1CCNCC1O2 (centres unmarked) [Example 294, 6-[(3-Chlorophenyl)sulfonyl]-1,2,3,4,4a,9a-hexahydro[1]benzofuro[2,3-c]pyridine trifluoroacetic acid salt] | < 500 nM
Cc1nc(COc2cccc(S(=O)(=O)c3ccc4c(c3)OC3CNCCC43)c2)cs1 (centres unmarked) [Example 569] | < 500 nM
CC1(C2CC2)NCCc2c1oc1cc(S(=O)(=O)c3cccc(F)c3)ccc21 (racemic) [Example 29, 1-cyclopropyl-7-[(3-fluorophenyl)sulfonyl]-1-methyl-1,2,3,4-tetrahydro[1]benzofuro[2,3-c]pyridine] | < 500 nM
Cc1ccc(F)cc1S(=O)(=O)c1ccc2c(c1)OC1CNCCC21 (centres unmarked) [Example 130] | < 500 nM
O=S(=O)(Oc1ccc2c(c1)OC1CNCCC21)c1ccccc1 (centres unmarked) [Example 636] | < 500 nM
Cc1ccc(S(=O)(=O)Oc2ccc3c(c2)OC2CNCCC32)cc1F (centres unmarked) [Example 652] | 500 to 1000 nM
CC1(C)NCCc2c1oc1cc(S(=O)(=O)c3cccc(F)c3F)ccc21 [Example 365] | < 500 nM
CC(C)Oc1ccccc1S(=O)(=O)c1ccc2c(c1)OC1CNCCC21 (centres unmarked) [Example 419] | < 500 nM
O=S(=O)(c1ccncc1)c1ccc2c(c1)OC1CNCCC21 (centres unmarked) [Example 330] | > 1000 nM
CC(=O)N1CCc2c(oc3cc(S(=O)(=O)c4cccc(Cl)c4)ccc23)C1 [Example 615, 1-{7-[(3-Chlorophenyl)sulfonyl]-3,4-dihydro[1]benzofuro[2,3-c]pyridin-2(1H)-yl}ethanone] | < 500 nM
O=S(=O)(Nc1ccccc1Cl)c1ccc2c(c1)C1CCNCC1O2 (centres unmarked) [Example 840] | > 1000 nM
O=S(=O)(c1ccccc1)c1ccc2c(c1)C1CCNCC1O2 (centres unmarked) [Example 337, 6-(phenylsulfonyl)-1,2,3,4,4a,9a-hexahydro[1]benzofuro[2,3-c]pyridine] | > 1000 nM

Compound | Ki
O=S(=O)(c1ccccc1Cl)c1cccc2c1OC1CNCCC21 (centres unmarked) [Example 183] | < 500 nM
O=S(=O)(c1ccc(OC(F)(F)F)cc1)c1ccc2c3c(oc2c1)CNCC3 [Example 227, 7-{[4-(trifluoromethoxy)phenyl]sulfo-nyl}-1,2,3,4-tetrahydro[1]benzofuro[2,3-c]pyridine] | < 500 nM
CC(C)c1ccc(S(=O)(=O)Oc2ccc3c(c2)OC2CNCCC32)cc1 (centres unmarked) [Example 794] | < 500 nM
O=S(=O)(c1ccc2c(c1)OC1CNCCC21)c1cccc(Cl)c1Cl (centres unmarked) [Example 162] | < 500 nM
O=S(=O)(c1cccc(F)c1)c1ccc2oc3c(c2c1)CCNC3C1CCOCC1 (centres unmarked) [Example 520] | < 500 nM
[O-][S+](c1ccc2oc3c(c2c1)CCNC3)c1cccnc1OCC(F)(F)F (centres unmarked) [Example 447] | > 1000 nM
O=S(=O)(c1cccc(Cl)c1)c1ccc2c3c(oc2c1)CN(CCO)CC3 [Example 599] | < 500 nM
O=S(=O)(c1ccc2oc3c(c2c1)CCNC3)c1cccc2cccnc12 [Example 354] | < 500 nM
O=S(=O)(c1cncc(C(F)(F)F)c1)c1ccc2c(c1)OC1CNCCC21 (centres unmarked) [Example 464] | < 500 nM
O=S(=O)(c1ccc2oc3c(c2c1)CCNC3)c1cccc2ccccc12 [Example 249] | < 500 nM
CC(C)S(=O)(=O)Nc1ccc2c(c1)C1CCNCC1O2 (centres unmarked) [Example 832] | > 1000 nM
O=S(=O)(c1cccc(C(F)(F)F)c1)c1ccc2c3c(oc2c1)C1(CCOCC1)NCC3 [Example 298] | < 500 nM
CCC1(C)NCCc2c1oc1cc(S(=O)(=O)c3cccc(F)c3)ccc21 (racemic) [Example 27, 1-ethyl-7-[(3-fluorophenyl)sulfonyl]-1-methyl-1,2,3,4-tetrahydro[1]benzofuro[2,3-c]pyridine] | < 500 nM
CCN1CCC2c3ccc(S(=O)(=O)c4ccccc4)cc3OC2C1 (centres unmarked) [Example 605] | 500 to 1000 nM
O=S(=O)(Nc1ccc(Cl)cc1Cl)c1ccc2c(c1)C1CCNCC1O2 (centres unmarked) [Example 844] | > 1000 nM
CC12CCNCC1Oc1ccc(OS(=O)(=O)c3csc4ccccc34)cc12 (centres unmarked) [Example 772] | < 500 nM
O=S(=O)(c1cccc(F)c1)c1ccc2oc3c(c2c1)CCN1CCCCC31 (centres unmarked) [Example 618] | > 1000 nM
CC(C)Oc1cccc(S(=O)(=O)c2ccc3c4c(oc3c2)C(C)(C)NCC4)c1 [Example 15, 1,1-dimethyl-7-{[3-(propan-2-yloxy)phenyl]sulfonyl}-1,2,3,4-tetrahydro[1]benzofuro[2,3-c]pyridine] | < 500 nM
N#CCCCCOc1cccc(S(=O)(=O)c2ccc3c(c2)OC2CNCCC32)c1 (centres unmarked) [Example 574] | < 500 nM
O=S(=O)(c1cc[n+]([O-])cc1)c1ccc2c(c1)OC1CNCCC21 (centres unmarked) [Example 329] | > 1000 nM
O=S(=O)(Nc1ccc(F)cc1)c1ccc2c(c1)C1CCNCC1O2 (centres unmarked) [Example 847] | > 1000 nM
Cc1cccc(S(=O)(=O)c2ccc3c(c2)OC2CNCCC32C)n1 (racemic) [Example 6, 4a-methyl-7-[(6-methylpyridin-2-yl)sulfonyl]-1,2,3,4,4a,9a-hexahydro[1]benzofuro[2,3-c]pyridine] | > 1000 nM
COc1cc(OC2CCCC2)cc(S(=O)(=O)c2ccc3c(c2)OC2CNCCC32)c1 (centres unmarked) [Example 586] | < 500 nM
CC(C)Oc1cc(OC(CO)CCl)cc(S(=O)(=O)c2ccc3c(c2)OC2CNCCC32)c1 (centres unmarked) [Example 589] | < 500 nM

Compound | Ki
CC1(C)NCCc2c1oc1cc(S(=O)(=O)c3cccc4c3OC(F)(F)O4)ccc21 [Example 465] | < 500 nM
O=S(=O)(Cc1ccc(C(F)(F)F)cc1)Oc1ccc2c(c1)C1CCNCC1O2 (centres unmarked) [Example 751] | > 1000 nM
Cc1cc(C)c(S(=O)(=O)Oc2ccc3c(c2)OC2CNCCC32)c(C)c1 (centres unmarked) [Example 656] | < 500 nM
O=S(=O)(c1ccccc1)c1ccc2c3c(oc2c1)CNCC3 [Example 339, 7-(phenylsulfonyl)-1,2,3,4-tetrahydro[1]benzofuro[2,3-c]pyridine] | < 500 nM
Cc1c(S(=O)(=O)Oc2ccc3c(c2)C2CCNCC2O3)sc2ccc(Cl)cc12 (centres unmarked) [Example 748] | < 500 nM
O=S(=O)(Nc1ccc2c(c1)C1CCNCC1O2)c1ccc2ccccc2c1 (centres unmarked) [Example 819] | < 500 nM
COc1cc2c(cc1OC)CN(S(=O)(=O)c1ccc3c(c1)C1CCNCC1O3)CC2 (centres unmarked) [Example 859] | > 1000 nM
COc1ccc(OC)c(S(=O)(=O)Oc2ccc3c(c2)C2CCNCC2O3)c1 (centres unmarked) [Example 731] | < 500 nM
CCOc1cc(F)cc(S(=O)(=O)c2ccc3c(c2)OC2CNCCC32)c1 (centres unmarked) [Example 401] | < 500 nM
CC1(C)NCCc2c1oc1cc(S(=O)(=O)c3c[nH]c(=O)c(C(F)(F)F)c3)ccc21 [Example 377] | > 1000 nM
O=S(=O)(c1ccc(C(F)(F)F)cc1)c1ccc2c(c1)OC1CNCCC21 (centres unmarked) [Example 151] | 500 to 1000 nM
COc1cc(S(=O)(=O)c2ccc3c4c(oc3c2)C2(CCOC2)NCC4(C)C)c[n+]([O-])c1 (centres unmarked) [Example 453] | > 1000 nM
Cc1nc(S(=O)(=O)Oc2ccc3c(c2)OC2CNCCC32)cn1C (centres unmarked) [Example 645] | > 1000 nM
O=S(=O)(c1cccc(F)c1)c1ccc2oc3c(c2c1)CCNC3CCC(F)(F)F (centres unmarked) [Example 519] | 500 to 1000 nM
N#Cc1ccc(S(=O)(=O)c2ccc3c4c(oc3c2)CNCC4)cc1 [Example 220] | < 500 nM
O=S(=O)(c1cccc(Br)c1)c1ccc2oc3c(c2c1)CCNC3 [Example 263, 6-[(3-bromophenyl)sulfonyl]-1,2,3,4-tetrahydro[1]benzofuro[2,3-c]pyridine] | < 500 nM
O=S(=O)(c1ccc2c(c1)OCCO2)c1ccc2c3c(oc2c1)CNCC3 [Example 200] | < 500 nM
O=S(=O)(Nc1ccccc1F)c1ccc2c(c1)C1CCNCC1O2 (centres unmarked) [Example 839] | > 1000 nM
[O-][S+](c1cccc(OC(F)(F)F)c1)c1ccc2c3c(oc2c1)C1(CCOCC1)NCC3 (centres unmarked) [Example 299, 7-{[3-(trifluoromethoxy)phenyl]sulfi-nyl}-2′,3,3′,4,5′,6′-hexahydro-2H-spiro[1-benzofuro[2,3-c]pyridine-1,4′-pyran]] | < 500 nM
CC(C)(C)c1ccc(S(=O)(=O)Oc2ccc3c(c2)OC2CNCCC32)cc1 (centres unmarked) [Example 666] | < 500 nM
CC(C)Oc1ncccc1S(=O)(=O)c1ccc2c3c(oc2c1)CNCC3 [Example 439] | < 500 nM
CN(C)C(=O)CC1(C)NCCc2c1oc1cc(S(=O)(=O)c3cccc(F)c3)ccc21 (racemic) [Example 40, 2-{7-[(3-fluorophenyl)sulfonyl]-1-methyl-1,2,3,4-tetrahydro[1]benzofuro[2,3-c]pyridin-1-yl}-N,N-dimethylacetamide] | < 500 nM

Same assay, conditions: membranes of CHO-K1 cells with recombinant human 5-HT6, 4 nM [3H]LSD; specific data; read-out: h5-HT6 (Ki)

Compound | Ki
1,2,3,4,4a,9a-hexahydro[1]benzofuro[2,3-c]pyridin-7-yl naphthalene-2-sulfonate [Example 660] | 11.4 nM
